Values quoted from earlier work, collected in patent US20160304881A1, “DDR1 ANTAGONIST OR AN INHIBITOR OF DDR1 GENE EXPRESSION FOR USE IN THE PREVENTION OR TREATMENT OF CRESCENTIC GLOMERULONEPHRITIS” (INSERM (INSTITUT NATIONAL DE LA SANTE ET DE LA RECHERCHE …, priority 2011, published 2016).

Biological target: DDR1 (Homo sapiens, UniProt Q08345)
Conditions: described in Day et al. (2008)

Sequence of DDR1 (Q08345 19-913): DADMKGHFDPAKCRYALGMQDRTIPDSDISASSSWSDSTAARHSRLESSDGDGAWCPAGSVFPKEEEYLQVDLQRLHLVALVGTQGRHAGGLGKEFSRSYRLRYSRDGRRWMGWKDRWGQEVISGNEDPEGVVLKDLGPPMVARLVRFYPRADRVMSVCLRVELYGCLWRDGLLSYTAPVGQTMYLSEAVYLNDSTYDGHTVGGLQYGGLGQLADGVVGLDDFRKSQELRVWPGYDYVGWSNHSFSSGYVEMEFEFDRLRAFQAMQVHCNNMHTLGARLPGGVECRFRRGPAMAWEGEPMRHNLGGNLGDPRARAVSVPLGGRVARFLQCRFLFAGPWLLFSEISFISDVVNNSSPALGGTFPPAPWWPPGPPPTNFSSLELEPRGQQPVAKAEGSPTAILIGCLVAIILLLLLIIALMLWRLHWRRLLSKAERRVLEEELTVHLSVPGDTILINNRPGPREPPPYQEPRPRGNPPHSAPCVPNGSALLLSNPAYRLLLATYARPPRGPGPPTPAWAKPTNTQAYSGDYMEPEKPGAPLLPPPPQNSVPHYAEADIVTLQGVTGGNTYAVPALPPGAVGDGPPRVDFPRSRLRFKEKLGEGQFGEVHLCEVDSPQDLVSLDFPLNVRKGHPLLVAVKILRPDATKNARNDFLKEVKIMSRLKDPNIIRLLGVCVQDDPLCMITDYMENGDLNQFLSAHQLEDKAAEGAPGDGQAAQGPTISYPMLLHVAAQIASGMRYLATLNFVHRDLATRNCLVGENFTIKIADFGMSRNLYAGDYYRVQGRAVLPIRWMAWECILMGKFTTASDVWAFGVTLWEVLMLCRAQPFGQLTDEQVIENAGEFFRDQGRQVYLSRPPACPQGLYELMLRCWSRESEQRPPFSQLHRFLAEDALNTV

Cc1nc(Nc2ncc(C(=O)Nc3c(C)cccc3Cl)s2)cc(N2CCN(CCO)CC2)n1 [dasatinib, N-(2-chloro-6-methylphenyl)-2-[[6-[4-(2-hydroxyethyl)-1-piperazinyl]-2-methyl-4-pyrimidinyl]amino]-5-thiazole carboxamide]
collagen-induced DDR1 activation: inhibitors of collagen-induced DDR1 activation

Cc1cn(-c2cc(NC(=O)c3ccc(C)c(Nc4nccc(-c5cccnc5)n4)c3)cc(C(F)(F)F)c2)cn1 [nilotinib, 4-methyl-N-[3-(4-methyl-1H-imidazol-1-yl)-5-(trifluoromethyl)phenyl]-3-[(4-pyridin-3-ylpyrimidin-2-yl)amino]benzamide]
collagen-induced DDR1 activation: inhibitors of collagen-induced DDR1 activation
